Measured values taken from PMC5896266, “Development of Matrix Metalloproteinase-2 Inhibitors for Cardioprotection” (Frontiers in Pharmacology, 2018).

How the values were obtained:
Type in all cases: biochemical
MMP-1 = target: T1, MMP-1 (Homo sapiens, UniProt P03956); assay: MMP-1 inhibition (inhibitory profile); conditions: Table 2
T1 sequence (P03956 100-469): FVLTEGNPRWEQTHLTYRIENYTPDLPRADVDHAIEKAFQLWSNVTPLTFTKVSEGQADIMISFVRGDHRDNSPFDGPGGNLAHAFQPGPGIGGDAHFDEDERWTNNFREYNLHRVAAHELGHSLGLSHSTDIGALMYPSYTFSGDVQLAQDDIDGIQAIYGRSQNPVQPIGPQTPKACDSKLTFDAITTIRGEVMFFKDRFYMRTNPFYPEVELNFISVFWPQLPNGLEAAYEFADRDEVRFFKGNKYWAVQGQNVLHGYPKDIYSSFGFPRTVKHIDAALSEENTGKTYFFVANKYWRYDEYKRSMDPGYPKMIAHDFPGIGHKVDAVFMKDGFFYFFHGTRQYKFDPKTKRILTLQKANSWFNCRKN
Method: (§1) The compounds were measured for MMP-1, 2, 9, 13 to determine their inhibitory profile. Efficiency Index amplifies the two major required effects, selectivity against MMP-1 and the inhibitory activity.

MMP-13 = MMP-13 (Homo sapiens, UniProt P45452); assay: MMP-13 inhibition (inhibitory profile); conditions: Table 2
Method: as §1

[1] = target: T2, MMP-2 enzyme isolated from rat heart (Rattus norvegicus, UniProt P33436); assay: Gelatin zymography on cardiac MMP-2
T2 construct: we used full-length, active MMP-2 enzymes isolated from healthy young adult rat hearts; from tissue; host or cells: rat heart homogenate (healthy young adult rats)
T2 sequence (P33436 110-662): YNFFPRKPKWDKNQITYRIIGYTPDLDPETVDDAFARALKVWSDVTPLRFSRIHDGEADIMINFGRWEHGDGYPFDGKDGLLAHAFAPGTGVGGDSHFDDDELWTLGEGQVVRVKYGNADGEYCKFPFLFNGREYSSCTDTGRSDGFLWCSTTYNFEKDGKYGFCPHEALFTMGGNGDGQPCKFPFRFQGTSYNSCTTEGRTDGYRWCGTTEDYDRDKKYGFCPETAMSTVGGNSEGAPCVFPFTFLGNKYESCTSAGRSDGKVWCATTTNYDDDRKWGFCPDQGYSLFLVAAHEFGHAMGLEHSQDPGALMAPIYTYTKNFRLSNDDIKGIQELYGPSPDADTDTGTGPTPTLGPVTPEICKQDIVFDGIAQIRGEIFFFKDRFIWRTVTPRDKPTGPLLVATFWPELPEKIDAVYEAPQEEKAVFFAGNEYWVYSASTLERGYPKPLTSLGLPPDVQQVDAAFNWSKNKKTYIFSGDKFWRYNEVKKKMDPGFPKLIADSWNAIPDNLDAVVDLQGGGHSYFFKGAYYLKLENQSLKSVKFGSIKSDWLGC
Method: Gelatin zymography was performed as described previously (Kupai et al., [2010]; Bencsik et al., [2017]). MMP-2 was isolated from rat heart homogenates as follows: 50 μg protein/lane were loaded and separated by electrophoresis under non-reducing conditions on an 8% SDS-polyacrylamide gels copolymerized with 2 mg/ml gelatin from porcine skin (Sigma-Aldrich; St. Louis, MO). After electrophoresis, gels were washed in 2.5% Triton-X 100 with gentle agitation and then incubated for 20 h at 37°C in zymography development buffer (50 mM Tris-HCl, pH 7.5, containing 5 mM CaCl2, 200 mM NaCl) in the presence or abscence of the MMP inhibitor compounds. Zymographic gels were stained in a 0.05% Coomassie Brilliant Blue R-250 solution followed by destaining, and then zymograms were scanned. MMP activity was detected as a colorless transparent zone on a blue background and the clear bands in the gel were quantified by densitometry using the Quantity One software (Bio-Rad, Hercules, CA). The obtained density values were measured and percentage of inhibition values were then calculated.
To confirm the MTS screen results, we tested the potential MMP inhibitor molecules on MMP-2 enzyme isolated from rat heart in vitro. Therefore, we applied the MMPIs at 1 and 100 μM final concentration in the enzyme's development buffer (Table 3).
After the chemical optimization of the novel MMP inhibitor lead candidates, we determined their IC50 values by using gelatin zymography. During zymographic analysis, we used full-length, active MMP-2 enzymes isolated from healthy young adult rat hearts. Subsequently, the cardio-cytoprotective effects of the selected candidates having the lowest IC50 values to MMP-2 were tested in cultured neonatal cardiac myocytes subjected to simulated I/R injury. Cardiac myocyte cell culture assay allowed a relatively high throughput biological efficacy testing (Gorbe et al., [2010]) of the selected lead candidates in several dose ranges at different levels of inhibition of MMP-2 activity.

With `O=C(O)c1c[nH]c(CN(Cc2ccc(F)cc2)Cc2ccc(OCc3ccccc3)cc2)n1` [MMPI-1154] the IC50 (MMP-1) was 10000 nM, the IC50 (MMP-13) was 1800 nM and the inhibition at 100 µM ([1]; 100 μM, cardiac MMP-2, gelatin zymography, read-out: Inhibition (%)±SEM at 100 μM final MMP inhibitor concentration) was 100%. For the same molecule, the EC50 ([1]; concentration labelled EC50 in Supplementary Figure 4, doses calculated according to IC doses in vitro) was 2500 nM, the IC20 ([1]; concentration used in the ex vivo model, read-out: IC20 value (MMP-2 inhibition)) was 1000 nM and the IC50 ([1]; most effective concentration in cell culture experiments, read-out: IC50 value (MMP-2 inhibition)) was 2500 nM.
